{"source": "patent US10022342B2", "about": "“Methods and compositions for treating multiple myeloma” (Ohio State Innovation Foundation, priority 2015, dated 2018)", "key": {"histone 3 and 4": {"test_system": "histone 3 and 4", "experiment": "Immunoblot of acetyl histone H3 and H4 in MM.1S cells", "assay_type": "cell-based, human", "conditions": "0.1 μM, 24-hr", "procedure": "(§1) Growth inhibitory and pro-apoptotic properties of AR-42 as a single agent treatment agent have been reported previously in numerous malignancies, including MM. Because of the potent immunomodulatory effects observed with classical pan-HDACi's, immunology-related gene networks altered upon AR-42 treatment in MM cells were investigated using nCounter technology to analyze the effects of AR-42 on the expression of 511 human genes in MM.1S cells following 24-hr treatment with 0.1 μM AR-42.\nCells were harvested by centrifugation, washed with PBS and lysed using buffer composed of 50 mM Tris (pH 7.5), 150 mM NaCl, 10% glycerol, 1.0% NP-40, 0.1% SDS, supplemented with protease and phosphatase inhibitors. Protein concentrations were estimated by Bradford assay and equivalent quantities of the lysates were resolved on 4-20% Tris-HCl SDS-PAGE TGX gels (Bio-Rad). Proteins were transferred to nitrocellulose membranes and stained for acetyl-histone H3 (Milipore), acetyl-histone H4 (Milipore), IGF2BP1 (Cell Signaling Technology), IGF2BP3 (IMP-3, Santa Cruz Biotechnology), CD44 (Santa Cruz Biotechnology), CD48 (Abcam), Drosha (Cell Signaling Technology), or glyceraldehyde 3-phosphate dehydrogenase (GAPDH, Cell Signaling Technology), followed by anti-mouse, or anti-rabbit IgG-HRP (GE Healthcare). Signals were developed using Pierce ECL Western Blotting Substrate (Thermo Fisher Scientific)."}, "CD44 mRNA": {"test_system": "CD44 mRNA", "experiment": "CD44 mRNA by qRT-PCR in MM cells", "assay_type": "cell-based, human", "procedure": "Reduction of CD44 mRNA and protein persisted for 48 hours after treatment (FIGS. 2C-2D and data not shown).\n(§2) Quantitative real time-PCR (qRT-PCR) was performed with the TaqMan method (Applied Biosystems), according to the manufacturer's instructions, and analyzed with the 7900HT Sequence Detection System (Applied Biosystems). The appropriate TaqMan probes for mRNA, miRNA, and pri-miRNA quantification were purchased from Applied Biosystems, and all reactions were performed in triplicate. The following probes were used: hsa-miR-9-5p (000583), hsa-mir-9-1 (Hs03303201_pri), hsa-miR-9-2 (Hs03303202_pri), hsa-mir-9-3 (Hs03293595_pri), CD44 (Hs01075861_ml), IGF2BP3 (Hs00559907_g1). Simultaneous quantification of ornithine decarboxylase antizyme 1 (OAZ1), or GAPDH mRNAs were used as a reference for mRNA data normalization, while small endogenous nucleolar RNA U44/U48, or U6 were used for miRNA normalization. The relative expression levels were calculated by the comparative cycle threshold (Ct) method (User Bulletin #2; Applied Biosystems). Expression analyses of pre-miRNA was performed with SYBR green PCR master mix (Applied Biosystems) and normalized for U6 RNA. All primers used for amplification steps are listed in the Supplementary materials and methods."}, "[1]": {"test_system": "pri-miR-9-1, pri-miR-9-2, pri-miR-9-3", "experiment": "pri-miR-9 primary transcripts by qRT-PCR in MM.1S cells", "assay_type": "cell-based, human", "conditions": "vs controls", "procedure": "Because human miR-9-5p is encoded by three distinct genomic loci (i.e., primary (pri)-miR-9-1 on chromosome 1 (q22), pri-miR-9-2 on chromosome 5 (q14.3), and pri-miR-9-3 on chromosome 15 (q26.1)), the identity of the locus responsible for miR-9up-regulation in response to AR-42 was investigated.\nas §2, with “All primers used for amplification steps are listed in the Supplementary materials and methods.” left out"}, "miR-9-5p": {"test_system": "miR-9-5p", "experiment": "miR-9-5p expression by stem loop qRT-PCR", "assay_type": "cell-based, human", "conditions": "24 hours, dose dependent, vs control", "procedure": "51 miRNAs were differentially expressed between the two groups.\nas §2"}, "MM.1S cell line": {"test_system": "MM.1S cell line", "experiment": "Tumor size in MM.1S subcutaneous xenograft mice", "assay_type": "in vivo", "conditions": "25 mg/kg, 2 injections, at sacrifice", "procedure": "To investigate if AR-42 treatment could affect CD44 expression in vivo, a xenograft MM mouse model was created by injecting 1×10^7 viable cells of MM.1S cell line subcutaneously into the right flank of 12 NOD-SCID mice. […] One group of mice (n=4) received intra-peritoneal injections of 25 mg/kg AR-42, while the second group (n=4) was injected with vehicle control (8% DMSO in PBS; Ctrl). Injections were administered once a day (on Monday and Wednesday). Because the anti-tumor activity of AR-42 has been previously reported in preclinical mouse studies, mice were sacrificed 2 days after the second injection in order to avoid tumor size reduction. […] Tumors were excised and used for CD44 immunohistochemical (IHC) studies, while the serum was collected for ELISA assays. […] Thus, AR-42 down-regulates CD44 directly in vivo.\nAnimal experiments were performed according to OSU institutional guidelines. To generate MM xenograft model, 1×10^7 viable MM.1S cells were injected subcutaneously into the right flank of 12 […]. The tumor size was measured once a week using a caliper, and the volume was calculated in cubed millimeters (mm3), using the formula L×W2/2. […] Mice were treated with […] injection of AR-42 (25 mg/kg) or DMSO (8% in PBS) once a day on Monday and Wednesday."}, "CD44": {"test_system": "CD44", "experiment": "nCounter GX Human Immunology gene expression in MM.1S cells", "assay_type": "cell-based", "conditions": "0.1 μM, 24-hr, p<0.001", "procedure": "as §1\nTotal RNA was prepared using TRIzol (Invitrogen). The RNA was analyzed by nCounter GX Human Immunology Kit, or nCounter Human microRNA Kit, as recommended by the manufacturer (NanoString Technologies, Inc.). A total of 511 immunology related genes and 800 microRNAs were profiled.\nSamples analyzed by NanoString assay were normalized using the variance stabilization. The mean linkage hierarchical clustering algorithm was conducted to identify subgroups of significant miRNAs. […] The obtained data were deposited in the GEO database (accession number)."}}, "data": [{"smiles": "CC(C)[C@H](C(=O)Nc1ccc(C(=O)NO)cc1)c1ccccc1", "note": "[AR-42, (S)-N-hydroxy-4-(3-methyl-2-phenylbutanamido)benzamide]", "values": [{"measurement": "hyperacetylation of histone 3 and 4", "setting": "histone 3 and 4", "result": "detectable hyperacetylation"}, {"measurement": "persistence of reduction of CD44 mRNA and protein after treatment", "setting": "CD44 mRNA", "result": 48, "unit": "h"}, {"measurement": "CD44 mRNA", "setting": "CD44 mRNA; 24-hr treatment, dose-dependent, vs DMSO control", "result": "consistently downregulated"}, {"measurement": "primary transcripts of miR-9-5p", "setting": "[1]", "result": "dose dependent changes"}, {"measurement": "miR-9-5p expression levels", "setting": "miR-9-5p", "result": "increased"}, {"measurement": "tumor size vs vehicle group", "setting": "MM.1S cell line", "result": "still comparable"}, {"measurement": "CD44 gene expression (nCounter)", "setting": "CD44", "result": "most significantly downregulated"}]}]}
